From patent publication US9205121B2, “Echinacea formulation” (Integria Healthcare (Australia) PTY LTD, priority 2004, dated 2015)
Each block holds one molecule with its values, some of them ahead of it.

Experiments:
[1] = test system: human liver microsomes; assay type: in vitro ADME
Protocol: Livers were obtained from organ donors according to procedures is approved by the University of Queensland ethics committees. Samples of human liver were frozen in liquid nitrogen and stored at −70° C. prior to use. Microsomes were prepared according to the method of Guengerich except that microsomes were subjected to a final wash in 10 mM Tris-acetate, 1 mM EDTA and 20% glycerol pH 7.4 (resuspension buffer) to remove residual drugs (e.g. phenytoin—data not shown) present in donor livers.
Incubations (0.5 mL) with tissue fractions contained either the microsomal fraction at […] or the cytosolic fraction at 5 mg/mL protein in 100 mM potassium phosphate (pH 7.4) supplemented with is substrates (synthetic alkylamides 6, 11, 3 and 12 or the alkylamide fraction from the ethanolic liquid as required—see Figure legends for concentrations used) added from ethanolic stocks. Final ethanol concentrations were either 0.70% or 0.96% and were consistent in each assay. Reactions were initiated by the addition of an NADPH-generating system consisting of (final concentrations) […] NADP+, 10 mM glucose-6-phosphate and 0.5 μ/mL glucose-6-phosphate dehydrogenase. Negative controls and cytosolic incubations lacked an NADPH-generating system. Reaction mixtures were incubated at 37° C. with gentle agitation for the duration of each experiment. Reactions were terminated by addition of an equal volume of 100% methanol to a sample aliquot. Diluted samples were then centrifuged at 16000×g for 2 minutes and supernatants stored at −20° C. until analysis by LCMS.
Alkylamide concentrations in samples were determined by LCMS using a gradient HPLC system (Shimadzu LC1OAT) coupled to a quadrupole mass spectrometer (Shimadzu, QP8000a) operating in positive SIM mode with an APCI interface. The mobile phases were a mixture of water and acetonitrile. Alkylamides 6 and 3 were detected using a 65% acetonitrile isocratic run. Alkylamides 11 and 12 were detected using an 85% acetonitrile isocratic run. The alkylamide fraction was analysed using a gradient that increased from 20% to 40% acetonitrile over the first 5 minutes, then to 80% acetonitrile over the following 15 minutes and to 100% over the next 3 minutes followed by a re-equilibration period at 20% acetonitrile prior to the next injection. A similar gradient was used in scan and then SIM (M+1 of 248, 264, 246, 192, 280 and 282) modes to identify metabolites of 3. A C18, 3 m, 100×2.00 mm Phenomenex Luna column was used with a solvent flow rate of 0.3 mL/minute. All alkylamides were linear in the range 0.001-10 mg/mL (R^2>0.9) with a coefficient of variation between 4 and 5.
A number of pure, synthetic alkylamides (6, 11 3 and 12 as shown in FIG. 1) as well as the complex mixture of alkylamides obtained from an ethanolic extract of Echinacea were investigated for their susceptibility to liver P450-mediated degradation in microsomal preparations from four different subjects. The concentration of each substrate remaining at the given time points was quantified with LCMS and rates of substrate depletion were calculated as a percentage of the original concentration. […] From FIG. 3 it can be seen that there was a clear difference in the ability of the liver microsomal P450s to metabolise the synthetic 2-ene and the 2,4-diene alkylamides. […] In contrast, the 2,4-dienes were rapidly metabolised with only 9±2% of the original concentration of 3 and 2±1% of the original concentration of 12 detected after 2 hours. […]

[2] = test system: phagocytosis; settings: in vitro and in vivo; cited from earlier work
[3] = test system: TNF-α; experiment: TNF-α production under LPS stimulated conditions in macrophages; assay type: cell-based, mouse; settings: RAW 264.7 macrophages
Excerpt: Macrophages play an essential role in the development of specific and non-specific immune responses. Upon activation by a variety of stimuli macrophages release a number of products having biological activity. Such products include cytokines, such as TNF-α, […] and nitric oxide (NO). Macrophages undergo a process of cellular “activation” which is associated with morphological, functional, and biochemical changes in the cells in response to inflammatory signals or antigens. One prominent characteristic of activated macrophages is their increased capacity to release pro-inflammatory and cytotoxic mediators, which help aid in the resolution of infection or inflammation. As a prelude to macrophage activation LPS must bind to a receptor on the macrophage cell surface. Several LPS receptors have been identified in different macrophages with the most thoroughly studied receptor being the CD14 receptor.
The synthetic alkylamides correspond to the major 2-ene and 2,4-diene alkylamides found in Echinacea. These alkylamides are illustrated in FIG. 1 as compounds 6 and 3 respectively.

% of initial levels still present ([1]; human, 2 h, pH 7.4): 91±24%
Structure (SMILES): C#CC#CCCCC/C=C/C(=O)NCC(C)C [alkylamide 6, (2E)-N-isobutylundeca-2-ene-8,10-diynamide]

Structure (SMILES): CC#CC#CCCCC/C=C/C(=O)NCC(C)C [alkylamide 11, (2E)-N-isobutyldodeca-2-ene-8,10-diynamide]
rate of alkylamide metabolism relative to the rate found for 6 [1]: two fold higher

rate of alkylamide metabolism relative to the rate found for 6 [1]: ten fold higher
Structure (SMILES): CCCCCCC/C=C/C=C/C(=O)NCC(C)C [alkylamide 12, (2E-4E)-N-isobutyldodea-2,4-dienamide]

Structure (SMILES): O=C(/C=C/c1ccc(O)c(O)c1)O[C@@H](C(=O)O)[C@@H](OC(=O)/C=C/c1ccc(O)c(O)c1)C(=O)O [cichoric acid]
stimulation of phagocytosis [2]: marked stimulation
TNF-α production under LPS stimulated conditions [3]: significantly decreased
